Measurements from article PMC9529944, “Molecular asymmetry of a photosynthetic supercomplex from green sulfur bacteria” (Nature Communications, 2022).

B2: Fenna-Matthews-Olson (FMO) complex (natural protein, UniProt Q46393 1-366, looked up)
chain: MALFGSNDVTTAHSDYEIVLEGGSSSWGKVKARAKVNAPPASPLLPADCDVKLNVKPLDPAKGFVRISAVFESIVDSTKNKLTIEADIANETKERRISVGEGMVSVGDFSHTFSFEGSVVNLFYYRSDAVRRNVPNPIYMQGRQFHDILMKVPLDNNDLIDTWEGTVKAIGSTGAFNDWIRDFWFIGPAFTALNEGGQRISRIEVNGLNTESGPKGPVGVSRWRFSHGGSGMVDSISRWAELFPSDKLNRPAQVEAGFRSDSQGIEVKVDGEFPGVSVDAGGGLRRILNHPLIPLVHHGMVGKFNNFNVDAQLKVVLPKGYKIRYAAPQYRSQNLEEYRWSGGAYARWVEHVCKGGVGQFEILYAQ
notes: FMO bacteriochlorophyll a protein of Chlorobaculum tepidum TLS; homotrimer, each monomer with eight BChl a; Two trimers (FMO1, FMO2) of the same protein sit on one reaction center in the RC-FMO2 structure; they are one molecule here; also called FMO trimer; FMO1

Legend:
[1] = target: T1, GsbRC core (PscA dimer) in the RC-FMO2 photosynthetic supercomplex (Chlorobaculum tepidum, UniProt Q8KAY0); assay: cryo-EM structure, RC-FMO2 […] Å; assay type: binding
T1 construct: gene CT2020; native complex from membranes of C. tepidum, DDM-solubilized, no tags; homodimeric PscA core with associated subunits; PscE 59 residues modeled; with Photosystem P840 reaction center iron-sulfur protein; Cytochrome c (photosystem P840 reaction center cytochrome c-551); Photosystem P840 reaction center protein PscD; PscE, accessory membrane subunit; Ric1 protein; Bacteriochlorophyll a protein

PscB = target: T2, PscB (Chlorobaculum tepidum, UniProt Q8KAY1); assay: cryo-EM structure, RC-FMO2 […] Å; assay type: binding; settings: FA and FB clusters
T2 construct: native subunit in the RC-FMO2 supercomplex, no tags; loop 17-129 unmodelled; with Photosystem P840 reaction center, large subunit

[2] = target: B2; assay: cryo-EM structure; single-particle cryo-EM of the native supercomplex extracted with DDM from C. tepidum membranes; RC-FMO2 at 3.08 Å (local 2.92 and 3.06 Å), RC-FMO1 at 3.49 Å; 20 mM Tris-Cl pH 8.0, 200 mM NaCl, 0.17 mM DDM; settings: both partners purified
[3] = target: the molecule itself; assay: as above

CC(C)=CCC/C(C)=C/C=C/C(C)=C/C=C/C(C)=C/C=C/C=C(C)/C=C/C=C(C)/C=C/c1c(C)ccc(C)c1C [F26, chlorobactene]
cryo-EM structure, RC-FMO2 3.08 Å ([1]; three molecules in RC core): four Chl a, three chlorobactenes (F26)

[S]1[Fe]2[S]3[S]4[Fe][S]2[Fe]4[Fe]13 [SF4, iron-sulfur cluster]
cryo-EM structure, RC-FMO2 3.08 Å ([1]; FX cluster at PscA dimer): The FeS clusters and P840 dimer that drive the ETC in RC-FMO2 are arranged similarly | cryo-EM structure, RC-FMO2 3.08 Å (PscB): Cartoons are the protein residues that interact with the FeS clusters

B1: PscD (natural protein, UniProt Q8KEP5 1-143, looked up)
chain: MQPQLSRPQTASNQVRKAVSGPWSGNAVHKAEKYFITSAKRDRDGKLQIELVPASGRRKLSPTPEMIRRLIDGEIEIYILTTQPDIAIDMNKEIIDMENRYVIDFDKRGVKWTMREIPVFYHEGKGLCVELHNKIYTLDQFFK
notes: PscD subunit of the reaction center of Chlorobaculum tepidum; also called PscD subunit
binding result [2]: binds

B2
binding result [3]: binds
